For series [1] the following is noted: D. C. Delong et al, 1971; cited from earlier work.
The conditions of series [2]: literature; cited from earlier work.
Series [3] deals with Type 1 herpes simplex. The experiment in a line: In vitro activity against Type 1 herpes simplex, virus rating (VR) method of Sidwell et al. Type of series: cell-based. The settings on record: for virus rating (VR): method of Sidwell et al. Appl. Microbiol. 22, 797 (1971).
The test system of series [4] is measles virus. The experiment in a line: Plaque inhibition (measles virus). Format: cell-based. The note with it: for inhibition at 20 µg/mL / inhibition at 100 µg/mL / inhibition at 500 µg/mL: Measles morbillivirus, 96 h, VERO cells, 4 days at 37°C, >=50% definite, 20 to 50 moderate, <20% little or no antiviral activity; for inhibition at 20 µg/mL: read-out: Percent Plaque Inhibition at 20 µg/mL; for inhibition at 100 µg/mL: read-out: Percent Plaque Inhibition at 100 µg/mL; for inhibition at 500 µg/mL: read-out: Percent Plaque Inhibition at 500 µg/mL.

“Also recorded” adds a separate entry of the source. Like-named read-outs stand apart in the source and are kept apart here.

This is an account of results in patent US3948885A, “5-Hydroxyl-1,2,3-triazole-4-carboxamide nucleoside” (ICN Pharmaceuticals, Inc., priority 1973, dated 1976).

On to `NC(=O)c1[nH]nc([C@@H]2O[C@H](CO)[C@@H](O)[C@H]2O)c1O` [pyrazomycin], for which the “toxicity associated with employment in vivo (in words)” value in series [1] is “a degree of toxicity”. The “antiviral activity (in words)” value in series [2] is given as “exhibits a substantial range of antiviral activity”.
As for `NC(=O)c1[nH]nnc1O` [Compound 3, 4-Hydroxy-1,2,3-triazole-5-carboxamide], in series [3], the “activity against Type 1 herpes simplex (in words)” value was “active” and the “virus rating (VR)” value is on record as 0.6. In series [4], the inhibition at 20 µg/mL was determined as 33%, the inhibition at 100 µg/mL amounted to 60% and the inhibition at 500 µg/mL came out at 89%.
With `NC(=O)c1ncn([C@@H]2O[C@H](CO)[C@@H](O)[C@H]2O)n1` [1-β-D-ribofuranosyl-1,2,4-triazole-3-carboxamide], the “antiviral activity (in words)” value in series [2] was “substantial range of antiviral activity”.
Take `O.[NH-]C(=O)c1[nH]nnc1O.[Na+]` [Compound 4, 4-Hydroxy-1,2,3-triazole-5-carboxamide Sodium Salt Monohydrate]: the “activity against Type 1 herpes simplex (in words)” value in series [3] (Sodium Salt Monohydrate) was “active”. Also, the “virus rating (VR)” value in series [3] was determined as 0.5.
Consider `NC(=O)c1nnn([C@@H]2O[C@H](CO)[C@@H](O)[C@H]2O)c1O` [Compound 1, 5-Hydroxy-1-β-D-ribofuranosyl-1,2,3-triazole-4-carboxamide], for which, in series [3], the “activity against Type 1 herpes simplex (in words)” value is recorded as “exhibited in vitro activity; also recorded: active” and the “virus rating (VR)” value is 0.6. Moreover, in series [4], the inhibition at 20 µg/mL was determined as 33%, the inhibition at 100 µg/mL was 84% and the inhibition at 500 µg/mL was determined as 100%. For the same molecule, the “activity against measles virus (in words)” value in series [4] (in vitro) is “exhibited in vitro activity”.
In the case of `NC(=O)c1nn([C@@H]2O[C@H](CO)[C@@H](O)[C@H]2O)nc1O` [Compound 2, 5-Hydroxy-2-β-D-ribofuranosyl-1,2,3-triazole-4-carboxamide], in series [4], the inhibition at 20 µg/mL came to 0%, the inhibition at 100 µg/mL came out at 0% and the inhibition at 500 µg/mL came out at 5%.
